In data set [1] the test system is TMD8 subcutaneous xenograft (human diffuse large B-cell lymphoma cells). The experiment in a line: In vivo efficacy in TMD8 subcutaneous xenograft model. As to conditions: 10 mg/kg and 30 mg/kg vs Ibrutinib 50 mg/kg and GDC-0853 10 mg/kg. On the set-up: species or system mouse. How it is done:
Example 7 Evaluation of In Vivo Efficacy of the Compound of the Present Invention in TMD8 Subcutaneous Xenograft Model
Objects: To investigate the anti-tumor activity of compound 19 in TMD8 subcutaneous xenograft model in nude mice.
Methods: Human diffuse large B-cell lymphoma cells TMD8 (acquired under license from Tokyo Medical and Dental University) were cultured in RPMI1640 medium containing 10% fetal bovine serum. 1×10^7 tumor cells suspended in RPMI1640 medium mixed well with Matrigel (purchased from Corning, USA) at 1:1 were implanted subcutaneously on the right flank of each male Balb/c nude mouse (Shanghai Lingchang Biotechnology Co., Ltd.), pretreated with cyclophosphamide (at a dose of 200 mg/kg, intraperitoneal injection 24 h before cell inoculation). […] All drugs were administered by oral gavage, once a day, and the vehicle control group was administered orally with 0.5% hydroxypropyl methylcellulose solution (pH=3).
Tumor volumes (tumor volume=0.5× long diameter× short diameter^2) and body weights of the mice were measured regularly. The tumor volume change and body weight were statistically analyzed, with p<0.05 considered statistically significant, and p<0.01 as extremely statistically significant.
The anti-tumor activity was evaluated by tumor growth inhibition. […]

Data set [2] is described as follows: Stability test in liver microsomes (mouse). Type of data set: in vitro ADME. As to conditions: 1 μM compound. In a few lines: (§1)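 Compound (1 μM final) incubated 30 min at 37 °C with male CD-1 mouse or male SD rat pooled liver microsomes (0.5 mg/mL) in 50 mM phosphate buffer with 3 mM MgCl2, 1 mM EDTA and NADPH-regenerating system. Quenched with acetonitrile containing internal standard; LC-MS/MS gives percent remaining relative to 0-min sample.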

Data set [3] can be described thus: Stability test in liver microsomes (rat). Type of data set: in vitro ADME. As to conditions: 1 μM compound. The method in brief:
as §1
For orientation: Microsomes from liver hold many membrane-bound enzymes, among them those of drug oxidation.

[4] abbreviates: 0.5 mg/mL liver microsomes, 30 minutes incubation.

SMILES strings stand for the structures.

On to `C[C@H]1CN(C2COC2)CCN1c1ccc(Nc2cc(-c3ccnc(-n4ccn5c6c(cc5c4=O)CC(C)(C)C6)c3CO)cn(C)c2=O)nc1` [Compound 19], for which, in data set [1], the “anti-tumor efficacy compared with Ibrutinib or GDC-0853” value is given as “statistically significant superior efficacy to Ibrutinib or GDC-0853”. In addition, the “stability in mouse liver microsomes compared with reference GDC-0853” value in data set [2] (setting [4]) is on record as “better than that of the reference GDC-0853”. In data set [2] (mouse liver microsomes, 30 min), the “MLM, percentage of remaining compound after 30 minutes of incubation” value is recorded as 91.8%. Besides, the “stability in rat liver microsomes compared with reference GDC-0853” value in data set [3] (setting [4]) is given as “better than that of the reference GDC-0853”. Further, the “RLM, percentage of remaining compound after 30 minutes of incubation” value in data set [3] (rat liver microsomes, 30 min) was 92.7%.

The values are drawn from US12070457B2, “Substituted pyridines, pyridazines, pyrimidines, and 1,2,3-triazines as bruton's tyrosine kinase inhibitors” (HUTCHISON MEDIPHARMA LIMITED, priority 2020, dated 2024).
